Measured values published in ChEMBL document CHEMBL5212743, “Selectivity Literature for EUbOPEN Chemogenomics Library wave 3” (2023).
Values belong to the compound of their own block, whether it stands above or below them.

Columns and labels:
[1] = target: T1, Bromodomain-containing protein 4 (Homo sapiens, UniProt O60885); test: (§1) Selectivity interaction (TR-FRET assay) EUB0000191c BRD4
[2] = target: Histone acetyltransferase p300 (Homo sapiens) (UniProt Q09472); test: Selectivity interaction (Bromodomain panel (DSF assay)) EUB0000191c EP300
Sequence of Histone acetyltransferase p300 (Homo sapiens) (Q09472 whole entry): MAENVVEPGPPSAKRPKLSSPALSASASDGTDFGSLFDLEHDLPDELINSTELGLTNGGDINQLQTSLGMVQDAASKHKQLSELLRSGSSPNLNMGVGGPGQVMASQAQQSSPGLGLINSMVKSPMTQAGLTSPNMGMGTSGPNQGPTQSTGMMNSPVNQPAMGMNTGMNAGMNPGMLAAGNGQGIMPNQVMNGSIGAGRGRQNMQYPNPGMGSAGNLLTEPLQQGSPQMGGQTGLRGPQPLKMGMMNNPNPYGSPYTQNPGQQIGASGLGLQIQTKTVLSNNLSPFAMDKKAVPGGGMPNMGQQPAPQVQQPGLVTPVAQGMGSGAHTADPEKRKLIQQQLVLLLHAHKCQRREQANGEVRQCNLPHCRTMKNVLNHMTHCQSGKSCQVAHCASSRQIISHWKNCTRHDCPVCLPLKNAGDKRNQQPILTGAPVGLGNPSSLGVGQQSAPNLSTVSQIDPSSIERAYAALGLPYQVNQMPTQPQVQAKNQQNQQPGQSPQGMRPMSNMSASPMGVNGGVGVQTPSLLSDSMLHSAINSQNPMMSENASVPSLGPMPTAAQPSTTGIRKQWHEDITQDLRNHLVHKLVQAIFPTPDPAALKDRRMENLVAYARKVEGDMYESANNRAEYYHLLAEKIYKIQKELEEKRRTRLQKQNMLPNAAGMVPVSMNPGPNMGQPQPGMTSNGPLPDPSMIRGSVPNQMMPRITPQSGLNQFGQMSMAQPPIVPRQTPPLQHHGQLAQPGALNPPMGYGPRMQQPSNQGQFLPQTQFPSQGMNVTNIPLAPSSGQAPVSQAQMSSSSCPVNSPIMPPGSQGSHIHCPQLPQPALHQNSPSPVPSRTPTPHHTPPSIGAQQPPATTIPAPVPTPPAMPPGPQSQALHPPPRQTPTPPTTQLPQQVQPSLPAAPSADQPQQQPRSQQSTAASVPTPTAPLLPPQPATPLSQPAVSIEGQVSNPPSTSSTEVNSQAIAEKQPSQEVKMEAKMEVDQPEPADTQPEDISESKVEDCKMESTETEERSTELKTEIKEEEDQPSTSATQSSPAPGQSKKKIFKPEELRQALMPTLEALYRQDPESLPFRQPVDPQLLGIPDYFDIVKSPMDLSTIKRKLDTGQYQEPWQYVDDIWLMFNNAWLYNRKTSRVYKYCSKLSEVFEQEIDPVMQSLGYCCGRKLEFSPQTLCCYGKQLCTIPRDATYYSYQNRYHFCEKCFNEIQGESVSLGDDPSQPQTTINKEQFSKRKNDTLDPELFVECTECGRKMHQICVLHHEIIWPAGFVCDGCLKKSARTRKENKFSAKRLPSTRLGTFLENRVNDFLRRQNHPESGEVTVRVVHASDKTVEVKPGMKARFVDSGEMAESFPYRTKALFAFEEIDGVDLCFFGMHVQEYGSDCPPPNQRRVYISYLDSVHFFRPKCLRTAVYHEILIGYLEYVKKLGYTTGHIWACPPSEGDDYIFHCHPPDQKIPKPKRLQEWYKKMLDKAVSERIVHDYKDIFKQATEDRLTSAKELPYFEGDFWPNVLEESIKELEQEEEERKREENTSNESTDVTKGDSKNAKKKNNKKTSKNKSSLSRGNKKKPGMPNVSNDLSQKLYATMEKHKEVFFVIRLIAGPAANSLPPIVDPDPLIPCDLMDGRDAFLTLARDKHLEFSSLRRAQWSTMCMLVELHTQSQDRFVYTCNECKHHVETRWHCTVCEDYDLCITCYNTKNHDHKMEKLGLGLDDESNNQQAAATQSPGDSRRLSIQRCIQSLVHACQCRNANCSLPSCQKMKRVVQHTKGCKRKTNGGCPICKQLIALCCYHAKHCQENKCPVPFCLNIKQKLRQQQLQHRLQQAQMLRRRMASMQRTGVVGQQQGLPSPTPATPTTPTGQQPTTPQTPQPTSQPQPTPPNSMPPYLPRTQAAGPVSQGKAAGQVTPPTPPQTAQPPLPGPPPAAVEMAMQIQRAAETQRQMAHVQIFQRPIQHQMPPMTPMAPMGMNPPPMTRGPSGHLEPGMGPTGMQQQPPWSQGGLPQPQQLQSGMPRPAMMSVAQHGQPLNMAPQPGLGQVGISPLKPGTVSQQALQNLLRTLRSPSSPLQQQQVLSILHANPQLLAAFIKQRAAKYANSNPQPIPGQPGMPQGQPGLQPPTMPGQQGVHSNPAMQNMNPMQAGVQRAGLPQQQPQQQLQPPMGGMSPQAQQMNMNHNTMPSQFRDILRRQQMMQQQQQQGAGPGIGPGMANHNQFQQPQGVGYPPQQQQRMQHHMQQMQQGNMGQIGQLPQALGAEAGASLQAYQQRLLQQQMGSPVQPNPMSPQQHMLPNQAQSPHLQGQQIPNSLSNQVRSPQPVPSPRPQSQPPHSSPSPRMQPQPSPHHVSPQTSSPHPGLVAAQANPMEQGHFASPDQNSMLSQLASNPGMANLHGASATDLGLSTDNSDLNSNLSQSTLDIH

CREB-binding protein = CREB-binding protein (Homo sapiens, UniProt Q92793); test: Selectivity interaction (BROMOscan (DiscoverX)) EUB0000191c CREBBP; conditions: at 100 nM
[3] = target: T2, Adenosine receptor A1 (Homo sapiens) (UniProt P30542); test: Selectivity interaction (CEREP panel (LeadProfilingScreen Eurofins, panel of receptors, ion channels, and other enzymes)) EUB0000191c ADORA1; conditions: at 10 µM
T2 sequence (whole entry): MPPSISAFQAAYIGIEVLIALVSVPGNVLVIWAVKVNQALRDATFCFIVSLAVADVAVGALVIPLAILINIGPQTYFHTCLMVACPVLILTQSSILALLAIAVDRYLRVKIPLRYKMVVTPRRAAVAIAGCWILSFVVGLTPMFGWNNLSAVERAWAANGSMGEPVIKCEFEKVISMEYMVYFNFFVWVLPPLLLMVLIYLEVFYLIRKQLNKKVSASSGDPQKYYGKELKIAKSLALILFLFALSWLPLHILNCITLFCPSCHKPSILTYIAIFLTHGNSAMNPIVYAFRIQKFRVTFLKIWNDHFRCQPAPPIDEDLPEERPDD

[4] = target: Transcription initiation factor TFIID subunit 1-like (Homo sapiens) (UniProt Q8IZX4); test: Selectivity interaction (BROMOscan (DiscoverX)) EUB0000191c TAF1L; conditions: at 100 nM
[5] = target: T1, Bromodomain-containing protein 4; test: as §1; remark: listed apart in the source
[6] = target: cGMP-specific 3',5'-cyclic phosphodiesterase (Homo sapiens) (UniProt O76074); test: Selectivity interaction (CEREP panel (LeadProfilingScreen Eurofins, panel of receptors, ion channels, and other enzymes)) EUB0000191c PDE5A; conditions: at 10 µM
[7] = target: T3, Gamma-aminobutyric acid receptor subunit alpha-1 (Homo sapiens) (UniProt P14867); test: Selectivity interaction (CEREP panel (LeadProfilingScreen Eurofins, panel of receptors, ion channels, and other enzymes)) EUB0000191c GABRA1; conditions: at 10 µM
T3 sequence (whole entry): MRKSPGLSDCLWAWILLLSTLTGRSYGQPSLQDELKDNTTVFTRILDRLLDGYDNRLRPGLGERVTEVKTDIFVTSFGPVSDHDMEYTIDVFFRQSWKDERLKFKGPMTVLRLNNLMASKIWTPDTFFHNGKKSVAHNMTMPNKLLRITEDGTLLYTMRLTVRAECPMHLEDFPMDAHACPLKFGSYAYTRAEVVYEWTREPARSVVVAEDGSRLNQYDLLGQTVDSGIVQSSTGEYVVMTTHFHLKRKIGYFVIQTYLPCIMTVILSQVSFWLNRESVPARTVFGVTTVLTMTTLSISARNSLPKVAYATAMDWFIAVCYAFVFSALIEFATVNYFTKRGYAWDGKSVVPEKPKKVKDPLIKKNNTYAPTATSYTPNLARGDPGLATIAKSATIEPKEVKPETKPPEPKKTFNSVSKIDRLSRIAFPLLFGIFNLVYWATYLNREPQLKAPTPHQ

[8] = target: T4, Chromatin remodeling regulator CECR2 (Homo sapiens, UniProt Q9BXF3); test: Selectivity interaction (Bromodomain panel (DSF assay)) EUB0000191c CECR2
[9] = target: T4, Chromatin remodeling regulator CECR2; test: Selectivity interaction (ITC) EUB0000191c CECR2
[10] = target: cGMP-dependent 3',5'-cyclic phosphodiesterase (Homo sapiens) (UniProt O00408); test: Selectivity interaction (CEREP panel (LeadProfilingScreen Eurofins, panel of receptors, ion channels, and other enzymes)) EUB0000191c PDE2A; conditions: at 10 µM
[11] = target: T5, Bromodomain-containing protein 7 (Homo sapiens) (UniProt Q9NPI1); test: Selectivity interaction (Bromodomain panel (DSF assay)) EUB0000191c BRD7
T5 sequence (whole entry): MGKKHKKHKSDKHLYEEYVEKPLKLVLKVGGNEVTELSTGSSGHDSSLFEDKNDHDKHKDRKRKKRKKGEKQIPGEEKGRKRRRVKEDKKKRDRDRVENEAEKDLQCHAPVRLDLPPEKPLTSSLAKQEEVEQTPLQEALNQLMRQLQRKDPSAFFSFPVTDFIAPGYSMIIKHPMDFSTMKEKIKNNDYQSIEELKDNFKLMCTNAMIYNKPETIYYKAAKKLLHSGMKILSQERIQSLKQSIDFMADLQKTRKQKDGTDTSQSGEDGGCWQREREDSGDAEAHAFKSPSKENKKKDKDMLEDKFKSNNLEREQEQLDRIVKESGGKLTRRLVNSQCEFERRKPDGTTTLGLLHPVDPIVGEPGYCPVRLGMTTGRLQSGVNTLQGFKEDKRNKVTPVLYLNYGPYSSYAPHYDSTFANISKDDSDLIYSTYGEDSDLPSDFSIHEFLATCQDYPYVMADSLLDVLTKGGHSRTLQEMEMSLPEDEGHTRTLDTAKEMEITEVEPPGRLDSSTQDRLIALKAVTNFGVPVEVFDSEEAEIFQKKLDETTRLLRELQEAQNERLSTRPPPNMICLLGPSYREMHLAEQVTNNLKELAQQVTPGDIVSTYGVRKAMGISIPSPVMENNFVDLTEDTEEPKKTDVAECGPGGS

[12] = target: Epithelial discoidin domain-containing receptor 1 (Homo sapiens, UniProt Q08345); test: Selectivity interaction (KinomeScan (DiscoverX)) EUB0000703a DDR1; conditions: at 1 µM
[13] = target: Sodium-dependent noradrenaline transporter (Homo sapiens, UniProt P23975); test: Selectivity interaction (GPCR panel (PDSP screen)) EUB0000703a SLC6A2
[14] = target: T6, Gamma-aminobutyric acid receptor subunit alpha-1 (Homo sapiens, UniProt P14867); test: Selectivity interaction (GPCR panel (PDSP screen)) EUB0000703a GABRA1
T6 sequence (P14867 whole entry): T3 sequence (whole entry)

[15] = target: Kappa-type opioid receptor (Homo sapiens, UniProt P41145); test: Selectivity interaction (GPCR panel (PDSP screen)) EUB0000703a OPRK1
Sequence of Kappa-type opioid receptor (P41145 whole entry, canonical isoform): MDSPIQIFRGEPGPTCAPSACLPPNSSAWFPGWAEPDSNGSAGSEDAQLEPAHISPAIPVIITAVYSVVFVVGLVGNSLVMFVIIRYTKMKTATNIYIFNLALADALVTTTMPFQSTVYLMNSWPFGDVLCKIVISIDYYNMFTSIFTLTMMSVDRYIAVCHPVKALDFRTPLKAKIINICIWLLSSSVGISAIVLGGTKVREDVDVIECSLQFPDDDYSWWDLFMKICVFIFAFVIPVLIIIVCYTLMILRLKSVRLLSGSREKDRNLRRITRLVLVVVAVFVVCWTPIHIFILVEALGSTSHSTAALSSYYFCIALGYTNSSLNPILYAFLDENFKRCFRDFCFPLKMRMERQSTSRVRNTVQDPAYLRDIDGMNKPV

[16] = target: Phosphatidylinositol 4,5-bisphosphate 3-kinase catalytic subunit alpha isoform (Homo sapiens, UniProt P42336); test: Selectivity interaction (KinomeScan (DiscoverX)) EUB0000703a PIK3CA; conditions: at 1 µM
D(2) dopamine receptor = D(2) dopamine receptor (Homo sapiens, UniProt P14416); test: Selectivity interaction (GPCR panel (PDSP screen)) EUB0000703a DRD2
[17] = target: Tyrosine-protein kinase Lyn (Homo sapiens, UniProt P07948); test: Selectivity interaction (NanoBRET assay (HEK293T cells)) EUB0000703a LYN
[18] = tested on: Serine/threonine-protein kinase B-raf (Homo sapiens), P15056 [V600E]; test: Selectivity interaction (KinomeScan (DiscoverX)) EUB0000703a BRAF; conditions: at 1 µM
Sequence of Serine/threonine-protein kinase B-raf (Homo sapiens), P15056 [V600E] (P15056 whole entry V600E, the tested form may be a part): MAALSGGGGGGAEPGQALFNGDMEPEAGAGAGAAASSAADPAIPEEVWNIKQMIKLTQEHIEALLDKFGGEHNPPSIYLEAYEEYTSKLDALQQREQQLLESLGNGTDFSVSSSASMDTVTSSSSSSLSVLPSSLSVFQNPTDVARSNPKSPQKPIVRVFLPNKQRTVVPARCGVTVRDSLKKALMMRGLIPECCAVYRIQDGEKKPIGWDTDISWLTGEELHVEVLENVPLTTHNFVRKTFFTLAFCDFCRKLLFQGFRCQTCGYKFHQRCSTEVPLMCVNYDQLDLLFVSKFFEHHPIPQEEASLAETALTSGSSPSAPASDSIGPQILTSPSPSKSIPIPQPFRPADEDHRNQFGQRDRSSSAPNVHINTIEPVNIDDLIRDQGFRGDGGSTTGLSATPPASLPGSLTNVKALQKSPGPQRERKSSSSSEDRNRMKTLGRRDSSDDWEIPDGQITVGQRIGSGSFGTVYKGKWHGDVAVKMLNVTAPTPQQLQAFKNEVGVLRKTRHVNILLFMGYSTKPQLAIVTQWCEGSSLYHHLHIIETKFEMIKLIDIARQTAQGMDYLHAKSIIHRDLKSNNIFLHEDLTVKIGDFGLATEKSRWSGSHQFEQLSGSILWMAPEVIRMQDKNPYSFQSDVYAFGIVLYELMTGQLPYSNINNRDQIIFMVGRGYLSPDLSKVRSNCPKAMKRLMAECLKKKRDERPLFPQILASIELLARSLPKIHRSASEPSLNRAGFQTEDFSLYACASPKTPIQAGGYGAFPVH

[19] = target: Discoidin domain-containing receptor 2 (Homo sapiens) (UniProt Q16832); test: Selectivity interaction (KinomeScan (DiscoverX)) EUB0000703a DDR2; conditions: at 1 µM
[20] = target: T7, Serine/threonine-protein kinase LATS2 (Homo sapiens) (UniProt Q9NRM7); test: Selectivity interaction (KinomeScan (DiscoverX)) EUB0000716a LATS2; conditions: at 100 nM
T7 sequence (whole entry): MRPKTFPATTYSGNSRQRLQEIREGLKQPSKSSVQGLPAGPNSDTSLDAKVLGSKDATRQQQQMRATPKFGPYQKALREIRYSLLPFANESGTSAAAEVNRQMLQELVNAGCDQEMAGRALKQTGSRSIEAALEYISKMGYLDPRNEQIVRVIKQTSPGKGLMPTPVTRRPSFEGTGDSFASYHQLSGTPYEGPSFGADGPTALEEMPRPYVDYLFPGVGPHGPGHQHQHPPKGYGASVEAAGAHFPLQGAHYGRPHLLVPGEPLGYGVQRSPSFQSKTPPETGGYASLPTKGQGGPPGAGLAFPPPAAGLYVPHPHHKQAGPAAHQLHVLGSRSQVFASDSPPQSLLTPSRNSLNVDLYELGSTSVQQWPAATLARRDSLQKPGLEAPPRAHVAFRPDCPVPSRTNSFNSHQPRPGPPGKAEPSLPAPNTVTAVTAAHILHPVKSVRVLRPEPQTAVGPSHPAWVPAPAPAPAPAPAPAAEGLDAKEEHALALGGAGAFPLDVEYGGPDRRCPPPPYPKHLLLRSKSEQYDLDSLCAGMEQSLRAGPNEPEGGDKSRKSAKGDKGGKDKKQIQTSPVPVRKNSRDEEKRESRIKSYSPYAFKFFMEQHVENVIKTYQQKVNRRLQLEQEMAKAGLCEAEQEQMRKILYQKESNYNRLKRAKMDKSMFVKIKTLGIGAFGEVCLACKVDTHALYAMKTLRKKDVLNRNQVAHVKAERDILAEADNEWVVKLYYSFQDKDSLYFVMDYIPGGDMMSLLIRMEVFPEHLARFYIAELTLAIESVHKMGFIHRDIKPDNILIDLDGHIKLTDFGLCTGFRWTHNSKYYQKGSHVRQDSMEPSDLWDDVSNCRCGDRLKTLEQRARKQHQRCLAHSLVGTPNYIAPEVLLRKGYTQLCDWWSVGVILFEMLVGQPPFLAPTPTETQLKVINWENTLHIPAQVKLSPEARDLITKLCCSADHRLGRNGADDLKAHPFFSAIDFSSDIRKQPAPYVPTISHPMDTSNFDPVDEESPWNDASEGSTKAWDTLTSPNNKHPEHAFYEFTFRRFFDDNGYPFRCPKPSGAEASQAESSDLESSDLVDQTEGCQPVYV

[21] = target: T8, Serine/threonine-protein kinase LATS1 (Homo sapiens) (UniProt O95835); test: Selectivity interaction (KinomeScan (DiscoverX)) EUB0000716a LATS1; conditions: at 100 nM
T8 sequence (whole entry): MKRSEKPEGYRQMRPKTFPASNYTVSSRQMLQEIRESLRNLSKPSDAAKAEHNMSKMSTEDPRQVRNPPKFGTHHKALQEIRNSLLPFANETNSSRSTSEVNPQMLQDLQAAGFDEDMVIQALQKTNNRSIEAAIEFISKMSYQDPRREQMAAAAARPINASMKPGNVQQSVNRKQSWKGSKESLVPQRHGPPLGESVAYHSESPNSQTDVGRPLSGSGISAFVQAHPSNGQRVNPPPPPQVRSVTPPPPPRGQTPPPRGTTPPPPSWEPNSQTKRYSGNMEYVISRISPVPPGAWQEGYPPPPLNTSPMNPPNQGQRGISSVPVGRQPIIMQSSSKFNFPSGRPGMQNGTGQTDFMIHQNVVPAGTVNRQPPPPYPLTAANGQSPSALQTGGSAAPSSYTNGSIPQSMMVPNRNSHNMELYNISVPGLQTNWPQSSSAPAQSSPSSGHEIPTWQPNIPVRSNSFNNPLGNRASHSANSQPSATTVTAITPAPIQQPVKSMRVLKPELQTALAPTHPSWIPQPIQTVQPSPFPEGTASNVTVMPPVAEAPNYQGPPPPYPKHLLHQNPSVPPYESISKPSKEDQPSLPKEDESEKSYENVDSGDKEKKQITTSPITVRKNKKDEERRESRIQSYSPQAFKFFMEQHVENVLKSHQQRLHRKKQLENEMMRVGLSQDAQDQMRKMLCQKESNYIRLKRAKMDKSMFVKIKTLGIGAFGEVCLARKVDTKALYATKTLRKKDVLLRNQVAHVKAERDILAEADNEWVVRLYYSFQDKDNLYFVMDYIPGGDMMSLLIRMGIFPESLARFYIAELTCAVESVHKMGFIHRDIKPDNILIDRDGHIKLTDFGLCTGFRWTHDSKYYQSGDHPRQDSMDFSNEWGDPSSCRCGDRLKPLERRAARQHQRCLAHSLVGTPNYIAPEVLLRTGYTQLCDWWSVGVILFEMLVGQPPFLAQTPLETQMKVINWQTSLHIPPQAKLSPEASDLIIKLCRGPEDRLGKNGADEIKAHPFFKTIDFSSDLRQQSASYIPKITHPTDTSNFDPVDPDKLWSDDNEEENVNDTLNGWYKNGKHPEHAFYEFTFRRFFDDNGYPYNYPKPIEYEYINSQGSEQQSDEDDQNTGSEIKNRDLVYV

[22] = target: cGMP-dependent protein kinase 1 (Homo sapiens) (UniProt Q13976); test: Selectivity interaction (KinomeScan (DiscoverX)) EUB0000716a PRKG1; conditions: at 100 nM
Sequence of cGMP-dependent protein kinase 1 (Homo sapiens) (Q13976 whole entry): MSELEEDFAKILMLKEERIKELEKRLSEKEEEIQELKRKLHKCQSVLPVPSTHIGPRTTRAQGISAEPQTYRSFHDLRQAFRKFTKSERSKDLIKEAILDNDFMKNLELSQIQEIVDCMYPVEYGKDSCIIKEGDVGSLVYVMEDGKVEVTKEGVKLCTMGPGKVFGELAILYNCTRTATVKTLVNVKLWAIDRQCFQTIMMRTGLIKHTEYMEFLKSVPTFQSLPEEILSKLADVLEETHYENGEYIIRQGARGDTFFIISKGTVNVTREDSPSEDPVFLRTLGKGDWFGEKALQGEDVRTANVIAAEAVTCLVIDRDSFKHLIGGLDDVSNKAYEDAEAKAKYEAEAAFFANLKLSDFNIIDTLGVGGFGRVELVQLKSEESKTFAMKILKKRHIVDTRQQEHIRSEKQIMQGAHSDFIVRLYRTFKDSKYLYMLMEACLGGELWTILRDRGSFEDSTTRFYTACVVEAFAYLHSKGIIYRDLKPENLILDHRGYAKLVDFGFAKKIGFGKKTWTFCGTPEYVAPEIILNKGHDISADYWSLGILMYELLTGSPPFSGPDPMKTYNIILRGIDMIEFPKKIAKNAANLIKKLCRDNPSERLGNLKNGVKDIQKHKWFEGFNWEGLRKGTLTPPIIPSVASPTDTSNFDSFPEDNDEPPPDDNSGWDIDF

[23] = target: cAMP-dependent protein kinase catalytic subunit alpha (Homo sapiens, UniProt P17612); test: Selectivity interaction (KinomeScan (DiscoverX)) EUB0000716a PRKACA; conditions: at 100 nM
[24] = target: T9, Sodium-dependent dopamine transporter (Homo sapiens, UniProt Q01959); test: (§2) Selectivity interaction (Eurofins-Panlabs radioligand binding assay) EUB0000716a SLC6A3
T9 sequence (Q01959 whole entry): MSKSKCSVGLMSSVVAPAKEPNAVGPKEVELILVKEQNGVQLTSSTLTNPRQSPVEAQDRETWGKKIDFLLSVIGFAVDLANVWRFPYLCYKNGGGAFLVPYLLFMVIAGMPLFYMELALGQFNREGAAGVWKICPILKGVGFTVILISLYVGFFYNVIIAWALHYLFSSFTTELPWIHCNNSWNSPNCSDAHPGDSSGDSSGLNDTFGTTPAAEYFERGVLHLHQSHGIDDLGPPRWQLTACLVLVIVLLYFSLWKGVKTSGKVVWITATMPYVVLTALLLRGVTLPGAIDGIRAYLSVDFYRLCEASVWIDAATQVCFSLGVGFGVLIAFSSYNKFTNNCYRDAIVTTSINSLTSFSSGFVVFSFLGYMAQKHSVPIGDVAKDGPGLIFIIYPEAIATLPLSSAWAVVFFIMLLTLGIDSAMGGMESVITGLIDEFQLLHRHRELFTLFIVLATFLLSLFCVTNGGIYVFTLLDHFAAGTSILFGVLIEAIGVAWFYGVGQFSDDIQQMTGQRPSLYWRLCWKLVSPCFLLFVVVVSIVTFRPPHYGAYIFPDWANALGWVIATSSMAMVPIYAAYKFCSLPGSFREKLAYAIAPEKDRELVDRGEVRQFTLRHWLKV

[25] = target: cAMP-dependent protein kinase catalytic subunit beta (Homo sapiens) (UniProt P22694); test: Selectivity interaction (KinomeScan (DiscoverX)) EUB0000716a PRKACB; conditions: at 100 nM
[26] = target: T9, Sodium-dependent dopamine transporter; test: as §2; remark: listed apart in the source

IC50 [1]: > 20 µM | dTm [2]: 3.5 K | % of control (CREB-binding protein): 30% | % of control [3]: 48% | % of control [4]: 0.7% | IC50 [5]: > 15 µM | % of control [6]: 2% | % of control [7]: 23% | dTm [8]: 3.5 K | Kd [9]: 1.39 µM | % of control [10]: 49% | dTm [11]: 2.3 K
Compound: Cc1cc2c(cc1N1C(=O)c3cccc4c(CCCO)ccc(c34)C1=O)n(C)c(=O)n2C

% of control [12]: 0% | Ki [13]: > 10 µM | Ki [14]: 10.9 µM | Ki [15]: > 10 µM | % of control [16]: 23% | Ki (D(2) dopamine receptor): > 10 µM | IC50 [17]: 7 µM | % of control [18]: 24% | % of control [19]: 18%
Compound: Cc1cc(NC(=O)c2cccc(S(F)(F)(F)(F)F)c2)cc(-n2ccn3nc(-c4cccnc4)cc23)c1 [BAY-309]

% of control [20]: 0.7% | % of control [21]: 42% | % of control [22]: 49% | % of control [23]: 28% | Ki [24]: 0.039 µM | % of control [25]: 36% | Ki [26]: 0.027 µM
Compound: Cc1c[nH]c2nccc(Oc3c(F)cc(Nc4cc(Cl)nc(N)n4)cc3F)c12 [BAY-549]
